Measurements reported in patent US20190300868A1, “COMPOSITIONS AND METHODS FOR CRISPR-BASED SCREENING” (The Regents of the University of California, priority 2016, published 2019).

Assays:
[1] = tested on: K562 cells; experiment: Viability of cells loaded onto the device after chemical treatment (epistasis experiment); type: cell-based, human
Protocol: (§1) For the perturb-seq epistasis experiment, seven three-guide vectors targeting every possible combination of ATF6, IRE1α, and PERK as well as two independent three-guide vectors with three negative control guide RNAs and different barcodes were individually packaged into lentiviruses. Freshly produced (i.e. not frozen) lentiviruses were spinfected into cBA007 cells (at 33° C. for 2 h at 1000×g) in media supplemented with 8 μg/mL polybrene. The virus was removed by centrifugation and cells were resuspended in fresh media. Three days after infection, transduction efficiencies of 5-10% were measured by flow cytometry. Cells were combined into a pool with equal numbers of transduced (BFP+) cells for each vector (resulting in 2-fold excess of negative control vectors) and the combined cells were then sorted on a BD 63 FACS Aria2 to near purity. To limit heterogenous effects of cell microenvironments caused by cell settling, the sorted cells were grown with continuous agitation on an orbital shaker. Five days after infection, the pooled and sorted cells were split into three populations, which were treated as follows: 1) DMSO control treatment for 6 hr; 2) treatment with 4 μg/mL tunicamycin for 6 hr; and 3) treatment with 100 nM thapsigargin for 4 hr. […]

[2] = tested on: K562 cells with dCas9-KRAB; experiment: Single-cell RNA-seq cell cycle analysis of thapsigargin-treated cells; type: cell-based, human; conditions: thapsigargin treatment, UPR epistasis experiment
Protocol: as §1, with “purity.” for “purity. To limit heterogenous effects of cell microenvironments caused by cell settling, the sorted cells were grown with continuous agitation on an orbital shaker. Five days after infection, the pooled and sorted cells were split into three populations, which were treated as follows: 1) DMSO control treatment for 6 hr; 2) treatment with 4 μg/mL tunicamycin for 6 hr; and 3) treatment with 100 nM thapsigargin for 4 hr.”
Single-cell analysis in FIG. 3 A population consisting of cells treated with 100 nM thapsigargin in each of our 8 genetic backgrounds was formed, along with DMSO-treated control cells. As outlined in the “Low cell count/inviable cell removal” section, cells with substantially lower than average UMI counts or that scored strongly for inviability markers from analysis were removed, as these groups partitioned away from the rest of the population in preliminary analyses. […]

[3] = tested on: CHOP mRNA; experiment: RT-qPCR of CHOP mRNA in sgRNA-transduced cells +/- thapsigargin; type: cell-based, human; conditions: cells transduced with SEC61A1-, SEC61B-, or SEC61G-targeting sgRNAs; 0.5 μM Tg for 1.5 hours
Protocol: RT-qPCR and semi-quantitative PCR for XBP1 mRNA splicing Cells were harvested and total RNA was isolated using TRIzol® Reagent (ThermoFisher Scientific, 15596-018) and Phase Lock Gel tubes (VWR, 10052-170) or NucleoSpin® RNA (Macherey-Nagel, 67 740955.50) essentially according to manufacturers' instructions. RNA prepared by TRIzol® extraction was treated with TURBO™ DNase (ThermoFisher Scientific). RNA was converted to cDNA using SuperScript® II or SuperScript® III Reverse Transcriptase (ThermoFisher Scientific) under standard conditions with oligo(dT) primers or random hexamers with or without RNaseOUT™ Recombinant Ribonuclease Inhibitor (ThermoFisher Scientific). Quantitative PCR reactions were prepared with 1× master mix containing 1× Colorless GoTaq® Reaction Buffer (Promega, M792A), MgCl2 (0.7 mM), dNTPs (0.2 mM each), primers (0.75 μM each), and 1000× SYBR Green with GoTaq® DNA polymerase (Promega, M830B) in 22 μL reactions. Reactions were run on a LightCycler® 480 Instrument (Roche). Semi-quantitative XBP1-specific PCR reactions were prepared with 2 μL of cDNA diluted 1:10 using a master mix containing 0.9× Colorless GoTaq® Reaction Buffer (Promega, M792A), dNTPs (0.23 mM each), primers (0.45 μM each) with GoTaq® DNA polymerase (Promega, M830B) in 22.1 μL reactions. […]

[4] = tested on: mCherry reporter of IRE1α activation; experiment: UPRE mCherry / EF1α GFP reporter in K562 reporter cells (cBA011), flow cytometry; type: cell-based, human; conditions: K562 reporter cells (cBA011) treated with tunicamycin
[5] = tested on: genomically integrated GFP; experiment: GFP knockdown by sgRNA expression vectors, flow cytometry; type: cell-based, human; conditions: paired with EGFP-NT2 protospacer; cr2 from mU6, cr3 from hU6 promoter
[6] = tested on: mRFP; experiment: E. coli CRISPRi reporter strain, knockdown of mRFP by constant region variants; type: cell-based; conditions: mRFP-targeting protospacer
Excerpt: Design and cloning of constant region variants for testing in E. coli. Constant region bases to mutate were identified by inspection of the crystal structure of Cas9 bound to guide RNA and target DNA (FIG. 9D, PDB ID codes 4OO8, 4UN3, 4ZT0 (Nishimasu et al. 2014, Anders et al. 2014, Jiang et al. 2015)). […] If applicable, sequence conservation patterns of the base in crRNAs/tracrRNAs of Streptococcus species and previous reports of constant regions carrying changes at the base (Briner et al. 2014, Dang et al. 2015) were used to determine the type of mutation. In this fashion, 15 constant region variants with mutations in different parts of the constant region were designed (FIG. 2D). The most diverse constant region variants cr2 and cr3 were designed by combining multiple individual mutations (FIG. 2D). To rapidly assess the activity of the variant constant regions, the variants were fused to a mRFP-targeting guide RNA (mRFP-NT1, sequence […] (SEQ ID NO: 36)) (Qi et al. 2013) and tested in an E. coli CRISPRi reporter strain for knockdown of mRFP (see below). To eliminate variability from copy number variation, guide RNAs were cloned into a plasmid for site-specific integration into the E. coli genome at attL and expressed from single copy from an IPTG-inducible PLlacO-1 promoter (Lutz, Bujard 1997). […]

Molecule: C/C=C(/C)C(=O)O[C@H]1C(C)=C2[C@H]([C@@H]1OC(=O)CCCCCCC)[C@@](C)(OC(C)=O)C[C@H](OC(=O)CCC)[C@@]1(O)[C@H]2OC(=O)[C@@]1(C)O [thapsigargin]
- viable cells loaded onto the device ([1]; human, 4 hr, 100 nM): 85.3%
- cell cycle effect [2]: PERK-dependent cell cycle arrest in G1
- CHOP expression [3]: CHOP upregulation

Molecule: tunicamycin
- XBP1-dependent mCherry induction [4]: ≤ 16 fold
- induction of GFP (EF1a promoter control reporter) [4]: no similar induction
- viable cells loaded onto the device ([1]; 4 μg/mL tunicamycin for 6 hr or 100 nM thapsigargin for 4 hr): 87.9%

B1: cr2: sgRNA constant region, combination of 3, 5, 9, 15, SEQ ID NO: 25 (nucleic acid)
chain: GTTTGAGAGCTAAGCAGAAAGCTGCATAGCAAGTTCAAATAAGGCTAGTCCGTACACAACTTGAAAAAGTGGCAGCCGAGTCGGCTGCTTTTTTT
modifications: expressed or natural sequence
- GFP depletion in K562 cells [5]: indistinguishable from that of the Perturb-seq vector
- function of constant region in bacteria [6]: functional in bacteria

B2: cr3: sgRNA constant region, combination of 2, 4, 10, 14, SEQ ID NO: 26 (nucleic acid)
chain: GTTTCAGAGCTAAGCACAAGAGTGCATAGCAAGTTGAAATAAGGCTAGTCCGTTTACAACTTGAAAAAGTGGCACCCGAGTCGGGTGCTTTTTTT
modifications: expressed or natural sequence
- GFP depletion in K562 cells [5]: indistinguishable from that of the Perturb-seq vector
- function of constant region in bacteria [6]: functional in bacteria
